In PubChem BioAssay AID2060501 (Molecular Pharmacology Branch, DTP, NCI, 2025):

Tested on: 282377-053-R-J1-PDC complex spheroids, viability
Experiment: Anticancer human tumor 282377-053-R-J1-PDC patient-derived colon adenocarcinoma cell line growth inhibition [GQUAD]
Settings: for IC50: curve of first compound; for viability, T/C: stronger effect = lower value
Outline: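 Tumor cells were grown as complex spheroids with HUVEC endothelial cells and mesenchymal stem cells as stroma. G-quadruplex stabilizers were combined with targeted agents over half-log dilutions from near the clinical Cmax, or from 10 microM.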

[1] = second compound 0.0316 µM, first compound 0.0316 µM
[2] = second compound 0.0316 µM, first compound 0.316 µM
[3] = second compound 0.1 µM, first compound 0.0316 µM
[4] = second compound 0.1 µM, first compound 0.316 µM
[5] = second compound 0.316 µM, first compound 0.0316 µM
[6] = second compound 0.316 µM, first compound 0.316 µM
[7] = second compound 1 µM, first compound 0.0316 µM
[8] = second compound 1 µM, first compound 0.316 µM
[9] = second compound 3.16 µM, first compound 0.0316 µM
[10] = second compound 3.16 µM, first compound 0.316 µM
[11] = second compound 10 µM, first compound 0.0316 µM
[12] = second compound 10 µM, first compound 0.316 µM
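Also: spheroids exposed to compounds for 7 days before readout.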
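For viability, T/C in this document: percent of vehicle DMSO control viability with 100% = untreated-like growth.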

Q: For `Cc1[nH]c2ccccc2c1CCNCc1ccc(/C=C/C(=O)NO)cc1` + Cc1cnc(CNC(=O)c2c(=O)c3ccc(N4CCCN(C)CC4)nc3n3c2sc2ccccc23)cn1, which IC50 (second compound 0.0316 µM) is on record?
A: 140 nM

Q: And the IC50 (second compound 0.1 µM)?
A: 122 nM

Q: What about the IC50 (second compound 0.316 µM) of the same compound?
A: 63.7 nM

Q: And the IC50 (second compound 1 µM)?
A: 17.7 nM

Q: And the IC50 (second compound 3.16 µM)?
A: < 0.999 nM

Q: And the IC50 (second compound 10 µM)?
A: < 0.999 nM

Q: And the viability, T/C (second compound 0.0316 µM, first compound 0.000999 µM)?
A: 86.4%

Q: What about the viability, T/C (second compound 0.0316 µM, first compound 0.00316 µM) of the same compound?
A: 87.7%

Q: What about the viability, T/C (second compound 0.0316 µM, first compound 0.00999 µM) of the same compound?
A: 129%

Q: What about the viability, T/C [1] of the same compound?
A: 95.2%

Q: What about the viability, T/C (second compound 0.0316 µM, first compound 0.0999 µM) of the same compound?
A: 67.7%

Q: And the viability, T/C [2]?
A: 7.24%

Q: What about the viability, T/C (second compound 0.1 µM, first compound 0.000999 µM) of the same compound?
A: 107%

Q: What about the viability, T/C (second compound 0.1 µM, first compound 0.00316 µM) of the same compound?
A: 86.6%

Q: What about the viability, T/C (second compound 0.1 µM, first compound 0.00999 µM) of the same compound?
A: 106%

Q: What about the viability, T/C [3] of the same compound?
A: 84.3%

Q: And the viability, T/C (second compound 0.1 µM, first compound 0.0999 µM)?
A: 60.7%

Q: And the viability, T/C [4]?
A: 1.3%

Q: And the viability, T/C (second compound 0.316 µM, first compound 0.000999 µM)?
A: 88.4%

Q: And the viability, T/C (second compound 0.316 µM, first compound 0.00316 µM)?
A: 75.8%

Q: What about the viability, T/C (second compound 0.316 µM, first compound 0.00999 µM) of the same compound?
A: 86.2%

Q: What about the viability, T/C [5] of the same compound?
A: 67.8%

Q: What about the viability, T/C (second compound 0.316 µM, first compound 0.0999 µM) of the same compound?
A: 37.9%

Q: What about the viability, T/C [6] of the same compound?
A: 2.14%

Q: What about the viability, T/C (second compound 1 µM, first compound 0.000999 µM) of the same compound?
A: 62.9%

Q: What about the viability, T/C (second compound 1 µM, first compound 0.00316 µM) of the same compound?
A: 53.8%

Q: And the viability, T/C (second compound 1 µM, first compound 0.00999 µM)?
A: 56.3%

Q: And the viability, T/C [7]?
A: 43%

Q: What about the viability, T/C (second compound 1 µM, first compound 0.0999 µM) of the same compound?
A: 33%

Q: And the viability, T/C [8]?
A: 0.07%

Q: And the viability, T/C (second compound 3.16 µM, first compound 0.000999 µM)?
A: 51.1%

Q: What about the viability, T/C (second compound 3.16 µM, first compound 0.00316 µM) of the same compound?
A: 48%

Q: And the viability, T/C (second compound 3.16 µM, first compound 0.00999 µM)?
A: 38.5%

Q: What about the viability, T/C [9] of the same compound?
A: 40.5%

Q: What about the viability, T/C (second compound 3.16 µM, first compound 0.0999 µM) of the same compound?
A: 19.6%

Q: What about the viability, T/C [10] of the same compound?
A: 0.2%

Q: And the viability, T/C (second compound 10 µM, first compound 0.000999 µM)?
A: 33.8%

Q: What about the viability, T/C (second compound 10 µM, first compound 0.00316 µM) of the same compound?
A: 32.9%

Q: And the viability, T/C (second compound 10 µM, first compound 0.00999 µM)?
A: 47%

Q: And the viability, T/C [11]?
A: 37%

Q: And the viability, T/C (second compound 10 µM, first compound 0.0999 µM)?
A: 0.26%

Q: And the viability, T/C [12]?
A: 0.36%

Q: `O=C(NO)c1cnc(N2CCN(S(=O)(=O)c3ccc4ccccc4c3)CC2)nc1` + Cc1cnc(CNC(=O)c2c(=O)c3ccc(N4CCCN(C)CC4)nc3n3c2sc2ccccc23)cn1 was tested. Which IC50 (second compound 0.0316 µM) did it give?
A: 360 nM

Q: And the IC50 (second compound 0.1 µM)?
A: 406 nM

Q: What about the IC50 (second compound 0.316 µM) of the same compound?
A: 189 nM

Q: What about the IC50 (second compound 1 µM) of the same compound?
A: 82.3 nM

Q: What about the IC50 (second compound 3.16 µM) of the same compound?
A: < 31.6 nM

Q: And the IC50 (second compound 10 µM)?
A: < 31.6 nM

Q: And the viability, T/C [1]?
A: 98.6%

Q: And the viability, T/C (second compound 0.0316 µM, first compound 0.1 µM)?
A: 78.5%

Q: And the viability, T/C [2]?
A: 57.9%

Q: And the viability, T/C (second compound 0.0316 µM, first compound 1 µM)?
A: 2.29%

Q: And the viability, T/C (second compound 0.0316 µM, first compound 3.16 µM)?
A: 0.07%

Q: What about the viability, T/C (second compound 0.0316 µM, first compound 10 µM) of the same compound?
A: 0.11%

Q: What about the viability, T/C [3] of the same compound?
A: 99.3%

Q: What about the viability, T/C (second compound 0.1 µM, first compound 0.1 µM) of the same compound?
A: 88%

Q: And the viability, T/C [4]?
A: 63.5%

Q: What about the viability, T/C (second compound 0.1 µM, first compound 1 µM) of the same compound?
A: 1.62%

Q: And the viability, T/C (second compound 0.1 µM, first compound 3.16 µM)?
A: 0.05%

Q: And the viability, T/C (second compound 0.1 µM, first compound 10 µM)?
A: 0.11%

Q: What about the viability, T/C [5] of the same compound?
A: 84.3%

Q: What about the viability, T/C (second compound 0.316 µM, first compound 0.1 µM) of the same compound?
A: 64.7%

Q: And the viability, T/C [6]?
A: 39.2%

Q: What about the viability, T/C (second compound 0.316 µM, first compound 1 µM) of the same compound?
A: 1.28%

Q: What about the viability, T/C (second compound 0.316 µM, first compound 3.16 µM) of the same compound?
A: 0.04%

Q: What about the viability, T/C (second compound 0.316 µM, first compound 10 µM) of the same compound?
A: 0.08%

Q: And the viability, T/C [7]?
A: 55.3%

Q: And the viability, T/C (second compound 1 µM, first compound 0.1 µM)?
A: 46.6%

Q: What about the viability, T/C [8] of the same compound?
A: 27.1%

Q: And the viability, T/C (second compound 1 µM, first compound 1 µM)?
A: 0.1%

Q: And the viability, T/C (second compound 1 µM, first compound 3.16 µM)?
A: 0.05%

Q: And the viability, T/C (second compound 1 µM, first compound 10 µM)?
A: 0.09%

Q: What about the viability, T/C [9] of the same compound?
A: 41%

Q: And the viability, T/C (second compound 3.16 µM, first compound 0.1 µM)?
A: 53.3%

Q: And the viability, T/C [10]?
A: 22.9%

Q: And the viability, T/C (second compound 3.16 µM, first compound 1 µM)?
A: 0.12%

Q: What about the viability, T/C (second compound 3.16 µM, first compound 3.16 µM) of the same compound?
A: 0.1%

Q: What about the viability, T/C (second compound 3.16 µM, first compound 10 µM) of the same compound?
A: 0.15%

Q: And the viability, T/C [11]?
A: 36.9%

Q: And the viability, T/C (second compound 10 µM, first compound 0.1 µM)?
A: 9.96%

Q: And the viability, T/C [12]?
A: 0.28%

Q: What about the viability, T/C (second compound 10 µM, first compound 1 µM) of the same compound?
A: 0.24%

Q: And the viability, T/C (second compound 10 µM, first compound 3.16 µM)?
A: 0.17%

Q: What about the viability, T/C (second compound 10 µM, first compound 10 µM) of the same compound?
A: 0.2%
